One may read the EC50 as the concentration at which the effect is half-maximal.

Active and inactive are the calls of the source. The calls are words filed in the database; no cut-off is given here. A value given as a limit tells only on which side of the number the result lay.

In assay [1] the target is T1, P2Y purinoceptor 6 (Homo sapiens, UniProt Q15077). As to the kind of experiment: Agonist activity at human P2Y6 receptor expressed in human 1321N1 cells coexpressing phospholipase C-activating Gq protein assessed as [3H]inositol phosphate production. In kind it is functional, cell-based.
T1 sequence (Q15077 whole entry): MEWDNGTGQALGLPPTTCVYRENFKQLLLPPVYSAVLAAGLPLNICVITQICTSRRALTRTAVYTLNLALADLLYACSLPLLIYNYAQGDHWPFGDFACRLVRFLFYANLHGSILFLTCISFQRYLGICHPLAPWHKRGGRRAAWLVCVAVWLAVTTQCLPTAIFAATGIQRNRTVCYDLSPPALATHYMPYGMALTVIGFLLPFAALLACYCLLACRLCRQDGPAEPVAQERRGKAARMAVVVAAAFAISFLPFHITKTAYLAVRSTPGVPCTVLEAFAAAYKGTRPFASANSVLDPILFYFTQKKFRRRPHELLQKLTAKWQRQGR
Assay [2] has as its target T2, P2Y purinoceptor 14 (Homo sapiens, UniProt Q15391).
T2 sequence (Q15391 whole entry): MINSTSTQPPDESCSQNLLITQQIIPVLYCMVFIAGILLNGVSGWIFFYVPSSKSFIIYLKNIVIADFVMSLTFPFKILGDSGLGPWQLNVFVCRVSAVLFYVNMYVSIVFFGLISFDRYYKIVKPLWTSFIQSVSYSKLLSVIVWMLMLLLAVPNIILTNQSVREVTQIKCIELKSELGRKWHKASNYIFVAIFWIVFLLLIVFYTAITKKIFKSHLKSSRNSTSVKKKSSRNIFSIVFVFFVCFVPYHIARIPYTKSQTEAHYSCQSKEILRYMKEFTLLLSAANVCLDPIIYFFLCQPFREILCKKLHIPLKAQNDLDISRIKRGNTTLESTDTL
As to the kind of experiment: Agonist activity at human P2Y14 receptor expressed in HEK293 cells coexpressing phospholipase C-activating Gi protein cells assessed as inhibition of forskolin induced [3H]cAMP production. It is filed as functional, cell-based. Background: Changes in cAMP serve as a functional read-out for many G protein-coupled receptors.

The target in assay [3] is T1, P2Y purinoceptor 6. The assay can be described thus: Agonist activity at human P2Y6 receptor expressed in human 1321N1 cells coexpressing phospholipase C-activating Gq protein assessed as [3H]inositol phosphate production at 10 uM. In kind it is functional, cell-based.
Assay [4] deals with T3, P2Y purinoceptor 14 (Homo sapiens) (UniProt Q15391).
T3 sequence (whole entry): T2 sequence (Q15391 whole entry)
The assay can be described thus: Agonist activity at human P2Y14 receptor expressed in HEK293 cells coexpressing phospholipase C-activating Gi protein cells assessed as inhibition of forskolin induced [3H]cAMP production at 10 uM. In kind it is functional, cell-based.

The species named for assay [5] is Homo sapiens. The assay can be described thus: Selectivity, ratio of EC50 for human P2Y6 receptor to EC50 for human P2Y14 receptor.

Turning to `O=c1ccn([C@@H]2O[C@H](COP(=O)(O)OP(=O)(O)Oc3ccc([N+](=O)[O-])cc3)[C@@H](O)[C@H]2O)c(=O)[nH]1`, the EC50 in assay [1] (read-out: EC50) was determined as 2760 nM; in assay [2] (read-out: EC50) it was 1490 nM.

`C#CCCOP(=O)(O)OP(=O)(O)OC[C@H]1O[C@@H](n2ccc(=O)[nH]c2=S)[C@H](O)[C@@H]1O`: the EC50 in assay [3] is > 10000 nM; in assay [2] (read-out: EC50), 11 nM.

With `O=c1ccn([C@@H]2O[C@H](COP(=O)(O)OP(=O)(O)OCC(O)CO)[C@@H](O)[C@H]2O)c(=O)[nH]1` (some centres not stated), the values for the EC50 in assay [3] and in assay [2] (read-out: EC50) were > 10000 nM and 1600 nM, respectively.

`O=c1ccn([C@@H]2O[C@H](COP(=O)(O)OP(=O)(O)Oc3cccc(Cl)c3)[C@@H](O)[C@H]2O)c(=O)[nH]1`: the EC50 amounted to 7370 nM in assay [1] (read-out: EC50) and 1800 nM in assay [2] (read-out: EC50).

As to `CO/N=c1/ccn([C@@H]2O[C@H](COP(=O)(O)OP(=O)(O)O)[C@@H](O)[C@H]2O)c(=O)[nH]1`, the EC50 in assay [1] (read-out: EC50) stood at 70 nM; in assay [2] (read-out: EC50), 3320 nM.

Turning to `O=c1ccn([C@H]2[C@H](O)[C@H](O)[C@@]3(COP(=O)(O)OP(=O)(O)O)C[C@H]23)c(=O)[nH]1`, the outcome in assay [4] and in assay [3] was inactive.

As for `O=c1ccn([C@@H]2O[C@H](COP(=O)(O)CP(=O)(O)O)[C@@H](O)[C@H]2O)c(=S)[nH]1`, the EC50 in assay [1] (read-out: EC50) turned out to be 1990 nM; in assay [2] (read-out: EC50) it was 0.92 nM. For the same compound, in assay [5], the Ratio EC50 was found to be 2160.

Regarding `O=c1ccn([C@@H]2O[C@H](COP(=O)(O)OP(=O)(O)O)[C@@H](O)[C@H]2O)c(=O)[nH]1` [URIDINE_DIPHOSPHATE], the EC50 in assay [1] (read-out: EC50) came to 530 nM.

Regarding `O=c1ccn([C@@H]2O[C@H](COP(=O)(O)OP(=O)(O)O)[C@@H](O)[C@H]2O)c(=S)[nH]1`, the results for the EC50 in assay [1] (read-out: EC50) and in assay [2] (read-out: EC50) were 447 nM and 1.92 nM, respectively. Besides, the Ratio EC50 in assay [5] amounted to 230.

As for `CC(C)(C)OP(=O)(O)OP(=O)(O)OC[C@H]1O[C@@H](n2ccc(=O)[nH]c2=S)[C@H](O)[C@@H]1O`, the figures for the EC50 in assay [1] (read-out: EC50) and in assay [2] (read-out: EC50) were 2040 nM and 32 nM, respectively. For the same compound, in assay [5], the Ratio EC50 came out at 64.

Turning to `O=c1[nH]c(=O)n([C@@H]2O[C@H](COP(=O)(O)C(F)(F)P(=O)(O)O)[C@@H](O)[C@H]2O)cc1I`, the EC50 was found to be 127 nM in assay [1] (read-out: EC50) and 142 nM in assay [2] (read-out: EC50).

As to `O=c1ccn([C@@H]2O[C@H](COP(=O)(O)OP(=O)(O)OC(CO)CO)[C@@H](O)[C@H]2O)c(=O)[nH]1`, the Ratio EC50 in assay [5] is 59. For the same compound, the EC50 in assay [3] was > 10000 nM; in assay [2] (read-out: EC50) it was 167 nM.

Regarding `N#CCCOP(=O)(O)OP(=O)(O)OC[C@H]1O[C@@H](n2ccc(=O)[nH]c2=O)[C@H](O)[C@@H]1O`, the figures for the EC50 in assay [3] and in assay [2] (read-out: EC50) were > 10000 nM and 7460 nM, respectively.

As for `C#CCCOP(=O)(O)OP(=O)(O)OC[C@H]1O[C@@H](n2ccc(=O)[nH]c2=O)[C@H](O)[C@@H]1O`, the EC50 was determined as 1520 nM in assay [1] (read-out: EC50) and 480 nM in assay [2] (read-out: EC50).

For the compound `COc1ccc(OP(=O)(O)OP(=O)(O)OC[C@H]2O[C@@H](n3ccc(=O)[nH]c3=O)[C@H](O)[C@@H]2O)cc1`, the EC50 in assay [3] is > 10000 nM; in assay [2] (read-out: EC50), 1900 nM.

As to `O=c1ccn([C@@]23C[C@H]2[C@H](COP(=O)(O)OP(=O)(O)O)[C@@H](O)[C@H]3O)c(=O)[nH]1`, in assay [4], the result was inactive. The EC50 in assay [1] (read-out: EC50) is 42 nM.

As for `CCN(CC)CC.COP(=O)(O)OP(=O)(O)OC[C@H]1O[C@@H](n2ccc(=S)[nH]c2=O)[C@H](O)[C@@H]1O`, the EC50 in assay [1] (read-out: EC50) is 10400 nM; in assay [2] (hek293) it was “Not Active”.

On to `CCCOP(=O)(O)OP(=O)(O)OC[C@H]1O[C@@H](n2ccc(=O)[nH]c2=S)[C@H](O)[C@@H]1O`, for which the EC50 in assay [1] (read-out: EC50) is 9100 nM; in assay [2] (read-out: EC50) it was 40 nM. Further, in assay [5], the Ratio EC50 is 230.

On to `O=c1ccn([C@@H]2O[C@H](COP(=O)(O)CP(=O)(O)O)[C@@H](O)[C@H]2O)c(=O)[nH]1`, for which the concentration for a half-maximal effect (EC50) in assay [1] (read-out: EC50) came out at 339 nM; in assay [2] (read-out: EC50), 11 nM. Further, the Ratio EC50 in assay [5] amounted to 31.

In the case of `CCOP(=O)(O)OP(=O)(O)OC[C@H]1O[C@@H](n2ccc(=O)[nH]c2=S)[C@H](O)[C@@H]1O`, the Ratio EC50 in assay [5] is > 250. For the same compound, the EC50 in assay [3] is > 10000 nM; in assay [2] (read-out: EC50) it was 39 nM.

Take `O=c1ccn([C@@H]2O[C@H](COP(=O)(O)C(F)(F)P(=O)(O)O)[C@@H](O)[C@H]2O)c(=O)[nH]1`: the results for the EC50 entry in assay [1] (1321-n1) and in assay [2] (read-out: EC50) were “Not Active” and 63 nM, respectively.

`COP(=O)(O)OP(=O)(O)OC[C@H]1O[C@@H](n2ccc(=O)[nH]c2=O)[C@H](O)[C@@H]1O`: the results for the EC50 in assay [3] and in assay [2] (read-out: EC50) were > 10000 nM and 2730 nM, respectively.

Consider `O=c1ccn([C@@H]2O[C@H](COP(=O)(O)OP(=O)(O)OC3CCCCC3)[C@@H](O)[C@H]2O)c(=O)[nH]1`, for which the EC50 in assay [3] was > 10000 nM; in assay [2] (read-out: EC50), 5160 nM.

`CC(C)(C)OP(=O)(O)OP(=O)(O)OC[C@H]1O[C@@H](n2ccc(=O)[nH]c2=O)[C@H](O)[C@@H]1O`: the Ratio EC50 in assay [5] is 43. Besides, the EC50 in assay [2] (read-out: EC50) was found to be 252 nM.

For `O=c1[nH]c(=S)ccn1[C@@H]1O[C@H](COP(=O)(O)OP(=O)(O)O)[C@@H](O)[C@H]1O`, the EC50 came out at 2360 nM in assay [1] (read-out: EC50) and 320 nM in assay [2] (read-out: EC50).

On to `COP(=O)(O)OP(=O)(O)OC[C@H]1O[C@@H](n2ccc(=O)[nH]c2=S)[C@H](O)[C@@H]1O`, for which the EC50 was > 10000 nM in assay [3] and 56 nM in assay [2] (read-out: EC50).

In the case of `O=c1[nH]c(=S)ccn1[C@@H]1O[C@H](COP(=O)(O)OP(=O)(O)O[C@H]2O[C@H](CO)[C@@H](O)[C@H](O)[C@H]2O)[C@@H](O)[C@H]1O`, the EC50 in assay [3] is > 10000 nM; in assay [2] (read-out: EC50) it was 11 nM.

Turning to `O=c1ccn([C@@H]2O[C@H](COP(=O)(O)OP(=O)(O)Oc3ccccc3)[C@@H](O)[C@H]2O)c(=O)[nH]1`, the 50% effective concentration (EC50) was found to be 7400 nM in assay [1] (read-out: EC50) and 768 nM in assay [2] (read-out: EC50).

For the origin of these results see ChEMBL document CHEMBL1156754, “Human P2Y(14) receptor agonists: truncation of the hexose moiety of uridine-5'-diphosphoglucose and its replacement with alkyl and aryl groups” (J Med Chem, 2010).
